Measured values taken from patent publication US20040047894A1, “Preparation for improved dietary utilisation” (priority 2001, published 2004).

Assays:
[1] = tested on: ICR mice; experiment: Four-week feeding experiment: bodyweight, feed intake and feed utilization; type: in vivo; details: four weeks
[2] = tested on: ICR mice; details: 1.0% calendic acid (ethyl ester) in feed, six weeks
Experimental: 5-6-week-old male and female ICR mice were obtained from Charles River. 18 animals (9 m/w) were randomly assigned to each experimental group. The animals were raised in groups of 3 animals at 20° C. in a 12-hour light/dark cycle. […] It comprised the following components: sucrose, casein, corn starch, DL-methionin, 5.5% of a mixture of vegetable oils (so that the feed comprised 0.6% linolenic acid and 3% linoleic acid of the total lipids), mineral and vitamin mix and Ethoxyquin (0.1 g/kg). In the experimental feed, the amount of vegetable oils was replaced by the corresponding amount of calendic acid. Calendic acid was present here as the ethyl ester and was obtained from calendula oil (BiRo, Sommerschenburg, Germany).
After a one-week adaptation period on control feed, a six-week experiment was carried out. Body weight and feed intake were measured weekly. At the end of the study the animals were killed and viscera and organs such as liver, heart and lungs were removed. The empty carcasses were frozen in liquid nitrogen, homogenized, and the contents of fat, protein and ash were determined by standard methods.

Compound: CCCCC\C=C/C=C/C=C/CCCCCCC(=O)O [Calendic acid, calendic acid]
- feed intake, male animals ([1]; male ICR mice, calendula oil 0.5-2.0% in feed): dose-dependent effect towards reduced feed intake
- feed utilization, male animals ([1]; male ICR mice, calendula oil 0.5-2.0% in feed, dose-dependent, FIG. 3): significantly improved
- weight gain ([1]; male and female ICR mice, calendula oil 0.5-2.0% in feed, FIG. 1): without affecting weight gain
- feed intake ([1]; male and female ICR mice, corn oil in feed replaced by crude calendula oil 0.5, 1.0 or 2.0% (approx. 62% calendic acid as triglyceride), FIG. 2): reduced feed intake
- changes in body weight versus control group ([2]; ICR mice): comparable
- fat content in the experimental animals ([2]; ICR mice, effect greater in male than in female animals): significantly decreased the fat content
- Body fat content (in % of body composition), female animals ([2]; female ICR mice, control 10.3% fat): 9.5% fat
- Body fat content (in % of body composition), male animals ([2]; male ICR mice, control 12.2% fat): 8.0% fat
